Measured values reported in ChEMBL document CHEMBL1201862, “PubChem BioAssay data set” (2004).
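Dose response: 5 concentrations. Exposure: 48 h. Format: 96-well plates. Endpoint: linear interpolation; highest concentration if not reached. GI50 marks 50% less growth.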 The source made the active and inactive calls. Rule as the data show it: active = GI50 up to about 1.1 µM and inactive = higher.

Experiments:
Assay in all cases: growth of human tumour cells (NCI), 48 h
786-0 = test system: 786-0
A498 = test system: A498
ACHN = test system: ACHN
CAKI-1 = test system: CAKI-1
CCRF-CEM = test system: CCRF-CEM
EKVX = test system: EKVX
HCT-116 = test system: HCT-116
HL-60 = test system: HL-60
HOP-92 = test system: HOP-92
M14 = test system: M14
MDA-MB-231 = test system: MDA-MB-231
NCI-H226 = test system: NCI-H226
OVCAR-4 = test system: OVCAR-4
SF-268 = test system: SF-268
SK-OV-3 = test system: SK-OV-3
SNB-75 = test system: SNB-75
SR = test system: SR
SW-620 = test system: SW-620
U-251 = test system: U-251
UO-31 = test system: UO-31

Row | SMILES | GI50 (786-0) | GI50 (A498) | GI50 (ACHN) | GI50 (CAKI-1) | GI50 (CCRF-CEM) | GI50 (EKVX) | GI50 (HCT-116) | GI50 (HL-60) | GI50 (HOP-92) | GI50 (M14) | GI50 (MDA-MB-231) | GI50 (NCI-H226) | GI50 (OVCAR-4) | GI50 (SF-268) | GI50 (SK-OV-3) | GI50 (SNB-75) | GI50 (SR) | GI50 (SW-620) | GI50 (U-251) | GI50 (UO-31)
1 | C/C(=N\NC(=O)c1ccncc1)c1ccc2ccccc2c1O | 0.548 µM (active) | 11.2 µM (inactive) | 0.993 µM (active) | 2.25 µM (inactive) | 0.232 µM (active) | 0.832 µM (active) | 0.608 µM (active) | 0.638 µM (active) | 8.28 µM (inactive) | 2.08 µM (inactive) | 5.08 µM (inactive) | 1.77 µM (inactive) | 0.966 µM (active) | 0.802 µM (active) | 4.47 µM (inactive) | 3.66 µM (inactive) | 0.303 µM (active) | 3.12 µM (inactive) | 2.69 µM (inactive) | 0.838 µM (active)
2 | Cc1ccc(C(=O)N/N=C2/C(=O)c3c4ccccc4cc4cccc2c34)cc1 | 14.2 µM (inactive) | > 100 µM (inactive) | 7.82 µM (inactive) | 25.4 µM (inactive) | 3.98 µM (inactive) | 40.2 µM (inactive) | 4.78 µM (inactive) | 10.2 µM (inactive) | 46.6 µM (inactive) | 31.4 µM (inactive) | 37 µM (inactive) | > 69.3 µM (inactive) | 18.2 µM (inactive) | 18.7 µM (inactive) | 23.7 µM (inactive) | 26.7 µM (inactive) | 1.99 µM (inactive) | 8.71 µM (inactive) | 21 µM (inactive) | 17.2 µM (inactive)
3 | O=C(c1ccc2ccccc2c1O)N1CCCCC1 | > 100 µM (inactive) | > 100 µM (inactive) | > 100 µM (inactive) | > 100 µM (inactive) | > 100 µM (inactive) | 61.4 µM (inactive) | 65.8 µM (inactive) | 68.9 µM (inactive) | 78.9 µM (inactive) | > 100 µM (inactive) | > 100 µM (inactive) | > 100 µM (inactive) | > 100 µM (inactive) | > 100 µM (inactive) | > 100 µM (inactive) | > 100 µM (inactive) | > 10 µM (inactive) | > 100 µM (inactive) | > 100 µM (inactive) | > 100 µM (inactive)
4 | C=CCSc1nnc2cc(CN3CCCC3)c(-c3ccc(Cl)cc3)nn12 | 17.1 µM (inactive) | 15.9 µM (inactive) | 15.7 µM (inactive) | 26.5 µM (inactive) | 45.1 µM (inactive) | 19 µM (inactive) | 14.5 µM (inactive) | 17.9 µM (inactive) | 16.1 µM (inactive) | 18.1 µM (inactive) | 19.6 µM (inactive) | 11.2 µM (inactive) | 20.3 µM (inactive) | 20.8 µM (inactive) | 20.2 µM (inactive) | 19.9 µM (inactive) | 32.6 µM (inactive) | 26.5 µM (inactive) | 17.5 µM (inactive) | 16 µM (inactive)
5 | COc1ccc(C(C2=C(O)COC2=O)c2cc3c(cc2O)OCO3)cc1OC (stereo not drawn) | > 100 µM (inactive) | > 100 µM (inactive) | > 100 µM (inactive) | > 100 µM (inactive) | > 100 µM (inactive) | > 100 µM (inactive) | > 100 µM (inactive) | > 100 µM (inactive) | > 100 µM (inactive) | > 100 µM (inactive) | > 100 µM (inactive) | > 100 µM (inactive) | > 100 µM (inactive) | > 100 µM (inactive) | > 100 µM (inactive) | > 100 µM (inactive) | > 100 µM (inactive) | > 100 µM (inactive) |  | > 100 µM (inactive)
6 | Cc1cc2c(cc1C(=O)CCC(=O)O)CC1(C2)Cc2cc(C)c(C(=O)CCC(=O)O)cc2C1 | > 100 µM (inactive) | > 100 µM (inactive) | > 100 µM (inactive) | > 100 µM (inactive) | > 100 µM (inactive) | > 100 µM (inactive) | > 100 µM (inactive) | > 100 µM (inactive) | > 100 µM (inactive) | > 100 µM (inactive) | > 100 µM (inactive) | > 100 µM (inactive) | > 100 µM (inactive) | > 100 µM (inactive) | > 100 µM (inactive) | 90.6 µM (inactive) | > 100 µM (inactive) | > 100 µM (inactive) | > 100 µM (inactive) | > 100 µM (inactive)
7 | COc1cc(OC)c(OC)cc1/C=C\c1ccnc2ccccc12 | 0.687 µM (active) | 0.522 µM (active) | 1.29 µM (inactive) | 1.05 µM (active) | 1.4 µM (inactive) | 2.17 µM (inactive) | 0.574 µM (active) | 0.344 µM (active) | 1.21 µM (inactive) | 0.574 µM (active) | 0.796 µM (active) | 0.977 µM (active) | 4.51 µM (inactive) | 0.838 µM (active) | 0.465 µM (active) | 0.335 µM (active) | 0.933 µM (active) | 0.679 µM (active) | 0.628 µM (active) | 0.944 µM (active)
8 | O=C(CCN1CCN2c3ccccc3CCC2C1)c1ccc(F)cc1 (stereo not drawn) | 18.9 µM (inactive) | > 100 µM (inactive) | 19 µM (inactive) | 23.3 µM (inactive) | 36.6 µM (inactive) | 27.5 µM (inactive) | 37.5 µM (inactive) | 28.5 µM (inactive) | 33.9 µM (inactive) | 49.7 µM (inactive) | 37.7 µM (inactive) | 34.8 µM (inactive) | 20 µM (inactive) | 46.9 µM (inactive) | 68.2 µM (inactive) | 27.2 µM (inactive) | 28.4 µM (inactive) | 10.3 µM (inactive) | 27.8 µM (inactive) | 17.6 µM (inactive)
9 | COc1cc(-c2cc(-c3ccccc3)nc(-c3c(OC)ccc4c(C)cc(=O)oc34)c2)cc(OC)c1OC | > 100 µM (inactive) | > 100 µM (inactive) | > 100 µM (inactive) | > 100 µM (inactive) | > 100 µM (inactive) | > 100 µM (inactive) | > 100 µM (inactive) | 13.6 µM (inactive) | > 100 µM (inactive) | > 100 µM (inactive) | > 100 µM (inactive) | > 100 µM (inactive) | > 100 µM (inactive) | > 100 µM (inactive) | > 100 µM (inactive) | > 100 µM (inactive) | > 100 µM (inactive) | > 100 µM (inactive) | > 100 µM (inactive) | > 100 µM (inactive)
10 | O=c1c2c3c(sc2nc2n1N=C(c1ccc([N+](=O)[O-])cc1)CS2)CCCC3 | > 100 µM (inactive) | > 100 µM (inactive) | > 100 µM (inactive) | > 100 µM (inactive) | > 100 µM (inactive) | > 100 µM (inactive) | > 100 µM (inactive) | > 100 µM (inactive) | > 100 µM (inactive) |  | > 100 µM (inactive) | > 100 µM (inactive) | > 100 µM (inactive) | > 100 µM (inactive) | > 100 µM (inactive) | > 100 µM (inactive) | > 100 µM (inactive) | > 100 µM (inactive) | > 100 µM (inactive) | > 100 µM (inactive)
11 | Cc1c(N(C)C)ccc2c(=O)c3cccc(CC(=O)O)c3oc12 | > 100 µM (inactive) | > 81.8 µM (inactive) | > 100 µM (inactive) | > 100 µM (inactive) | > 100 µM (inactive) | > 100 µM (inactive) | > 100 µM (inactive) | 97.9 µM (inactive) | > 64.9 µM (inactive) | > 100 µM (inactive) | > 100 µM (inactive) | > 100 µM (inactive) | > 100 µM (inactive) | > 100 µM (inactive) | > 100 µM (inactive) | > 100 µM (inactive) | > 100 µM (inactive) | > 33.3 µM (inactive) | > 100 µM (inactive) | > 100 µM (inactive)
12 | O=C1/C(=c2\c3ccccc3n3c(=O)c4ccccc4nc23)Nc2ccccc21 [CANDIDINE] | 58.7 µM (inactive) | > 100 µM (inactive) | > 100 µM (inactive) | > 100 µM (inactive) | > 100 µM (inactive) | > 88.9 µM (inactive) | > 100 µM (inactive) | > 10 µM (inactive) | > 75.7 µM (inactive) | > 38.7 µM (inactive) | > 70.3 µM (inactive) | > 100 µM (inactive) | > 100 µM (inactive) | 85.3 µM (inactive) | > 100 µM (inactive) | 25.6 µM (inactive) | > 89.5 µM (inactive) | > 100 µM (inactive) | > 93.8 µM (inactive) | > 21.5 µM (inactive)
13 | C/C1=C\C=C(\C(C)C)CC/C(C(=O)O)=C\CC/C(C)=C/CC1 [NEOCROTOCEMBRANEIC ACID] | 24.6 µM (inactive) | 17.6 µM (inactive) | 34.3 µM (inactive) | 31.7 µM (inactive) | 19.5 µM (inactive) | 27.1 µM (inactive) | 15.9 µM (inactive) | 24.8 µM (inactive) | 19.4 µM (inactive) | 29 µM (inactive) | 20.7 µM (inactive) | 20.9 µM (inactive) | 33.4 µM (inactive) | 32.9 µM (inactive) | 27.6 µM (inactive) | 33.7 µM (inactive) | 19.5 µM (inactive) | 35.8 µM (inactive) | 16.9 µM (inactive) | 30.3 µM (inactive)
